The subject of the assay is Histamin-H₂-Rezeptor. Nature of the assay: Antagonism of the dimaprit-induced fall in blood pressure in the anaesthetised rat, test substance given i.v. The assay is classed as in vivo, Ratten (Stamm: Sprague-Dawley, männlich). Here is the method:
Sie kann in 1 bis 4 Dosen/Tag aufgeteilt werden.
Zum Nachweis der Histamin-H₂-Rezeptor-blockierenden Wirkung wird folgende Methode angewendet.
Die Applikation der geprüften Substanzen erfolgt intravenös 5 min vor der Dimaprit-Injektion. Als ED 50 % werden die Dosen ermittelt, welche die Dimaprit-Blutdrucksenkung um 50 % hemmen.

In the case of `CNC(=NC#N)NCCCCn1c(C)ccc1C` [Verbindung des Beispiels 12], the “Histamin-H₂-Rezeptoren-blockierende Wirkung” value (result in words, potency compared with Cimetidin, b35 names no test, assigned to the only test described) was “wesentlich schwächer wirksam als Cimetidin”. Take `CNC(=NC#N)NCCSCc1nc[nH]c1C` [Cimetidin]: the “Hemmung der Dimaprit-Blutdrucksenkung” value (anaesthetised rats (urethane 1,78 g/kg i.p.), substance i.v. 5 min before Dimaprit 3,16 mg/kg i.v.) was “hemmen diese Dimaprit-Blutdrucksenkung dosisabhängig”. `CN(C)CCCSC(=N)N` [Dimaprit, S-[3-(N,N-dimethylamino)propyl]isothio urea]: the Blutdrucksenkungen (Dimaprit 3,16 mg/kg i.v. alone, anaesthetised rats, mean, baseline pressure 100 ± 1, 1 mmHg, N = 70) is given as 27 ± 0,7 mmHg.
